Measurements reported in patent publication US10308911B2, “Methods for generating the inner ear and other cranial placode-derived tissues using pluripotent stem cells” (Indiana University Research & Technology Corporation, priority 2012, dated 2019).
“Also recorded” adds a separate entry of the source.

Legend:
Type in all cases: cell-based, mouse
ESC aggregates [1] = experiment: Otic placode and otic vesicle induction (Pax2/Pax8/Ecad expression, vesicle counts)
Procedure: On day 8 of differentiation, cell aggregates are transferred to 24 well plates (Lipidure Coat, NOF; 4-8 aggregates per well) in N2 Medium containing 1% MATRIGEL™ (a gelatinous protein mixture secreted by Engelbreth-Holm-Swarm (EHS) mouse sarcoma cells) (v/v). N2 Medium contains Advanced DMEM/F12, 1×N2 Supplement, 1 mM Penicillin/Streptomycin or 50 μg/mL Normocin (Invivogen) and 1 mM GlutaMax.
(§1) The following small molecules and recombinant proteins were used: recombinant human BMP4 (10 ng/mL; Stemgent), human FGF2 (25 ng/mL; Peprotech), XAV939 (1 μM; Santa Cruz), SU5402 (10 μM; BioVision), SB-431542 (1 μM; Tocris Bioscience), and LDN-193189 (100 nM; Stemgent).
(§2) RNA was isolated using the RNeasy Minikit (Qiagen) and treated with TURBO DNase (Ambion). Single-stranded cDNA was synthesized using Omniscript reverse transcriptase (Qiagen) and Oligo-dT primers. All amplicons had standardized sizes of 100-110 bps. cDNA samples were amplified on an ABI PRISM 7900HT Sequence Detection System (Applied Biosystems) using the SYBR Green PCR Master Mix (Applied Biosystems). For each PCR reaction, a mixture containing cDNA template (5 ng), Master Mix, and forward and reverse primers (400 nM each) was treated with uracil N-glycosylase at 50° C. for 2 min before undergoing the following program: 1 cycles, 95° C., 10 min; 45 cycles, 95° C., 15 sec, 60° C., 1 min; 1 cycles, 95° C., 15 sec, 60° C., 15 sec, 95° C., 15 sec; 72° C., hold. Melting curve analysis was performed to confirm the authenticity of the PCR product. The mRNA level for each gene was calculated relative to L27 mRNA expression.
The percentage of epithelial cells expressing Pax8/Ecad was established by analyzing serial sections of day 6 and 8 aggregates. Data are representative of 6-8 aggregates from at least 3 separate experiments. For analysis of each aggregate, 5 cryosections were chosen at random positions along the z-axis of the aggregate. Using Nikon Elements or NIH ImageJ software, the Ecad^+ outer-epithelium was outlined and cell counting of DAPI and Pax8^+ nuclei along the length of the epithelium established a percentage for each cryosection.
Similarly, the number of Myo7a^+ hair cells in each day 20 aggregate was determined by analyzing 10 μm serial cryosections. Each biological sample represents the average number of hair cells counted in 4-6 cell aggregates and data are representative of the average from 3 separate experiments (15 aggregates total for each condition). Odd and even numbered cryosections were analyzed separately and averaged to avoid double counting. The number of vesicles was quantified similarly, but every third section was analyzed to avoid double counting and allow for analysis of three separate staining combinations. Vesicles with a long axis diameter larger than 30 μm were accounted for to avoid double counting.

ESC aggregates [2] = experiment: Pre-placodal ectoderm induction in BMP/SB aggregates (marker expression, epithelial thickness)
Procedure: On day 4-5, the differentiation medium is replaced with differentiation medium containing FGF2 in a final concentration range of about 5 ng/ml to about 100 ng/ml (with a preferred final concentration of about 25 ng/mL) or another FGF selected from FGF 1-FGF23), and a BMP inhibitor. In some embodiments, the BMP inhibitor is LDN-193189 (CAS No. 1062368-24-4 at about 100 nM). Alternatively, DMH1 (CAS No. 1206711-16-1) or Dorsomorphin (CAS No. […]) can be used as the BMP inhibitor were added to each well at 6× concentration in 25 μL of fresh media. The extracellular matrix protein concentration (e.g., MATRIGEL™ (a gelatinous protein mixture secreted by Engelbreth-Holm-Swarm (EHS) mouse sarcoma cells) at 2% (v/v)) is maintained throughout days 1-8. Culture of the non-neural ectoderm cells under these conditions yields preplacodal ectoderm, epithelium characterized by expression of at least one of Dlx3, Dlx5, Pax2, Pax8 and Eya1. The concentration of MATRIGEL™ (a gelatinous protein mixture secreted by Engelbreth-Holm-Swarm (EHS) mouse sarcoma cells) or another extracellular matrix protein, as mentioned herein, is maintained at 2% (v/v) throughout days 1-8.
as §1, §2
Aggregates were fixed with 4% paraformaldehyde. […]
The apparent thickness of epithelia was determined by analyzing cryosections stained with Ncad (Control) or Ecad antibodies (all other conditions) on days 3-6. […] For each aggregate, 3 serial sections were analyzed. Five points along the epithelium were randomly chosen and the thickness was measured using Nikon Elements image analysis tools.

ESC aggregates [3] = experiment: Non-neural ectoderm induction in SFEBq 3D culture (qPCR, immunostaining)
Procedure: In an exemplary embodiment using mES cells, during days 0-3, serum-free floating culture of embryoid body-like aggregate with quick reaggregation (SFEBq) to generate EBs is initiated by dissociation of adherent mES cells into a cell suspension by trypsinization (e.g., with 0.25% Trypsin-EDTA, and resuspended in “Differentiation Medium”. Differentiation Medium is composed of Glasgow Minimal Essential Medium (G-MEM) supplemented with 1.5% knockout serum replacement (KSR; Invitrogen), 0.1 mM non-essential amino acids, 1 mM sodium pyruvate, 1 mM Penicillin/Streptomycin and 1 mM 2-mercaptoethanol. Cells are then plated in 100 μl/well in a range of about 1,000-15,000 cells, but preferably about 3000 cells, a in 96-well low cell adhesion U-bottom plates. On day 1, half of the medium in each well is exchanged for fresh Differentiation Medium containing an extracellular matrix protein, e.g., MATRIGEL™ (a gelatinous protein mixture secreted by Engelbreth-Holm-Swarm (EHS) mouse sarcoma cells) (2% v/v final concentration), laminin (50-400 μg/ml), or laminin plus entactin (50-400 μg/ml each).
On day 3 after initiating formation of EBs, a BMP, e.g., BMP2, BMP4, or BMP7 and a TGFβ inhibitor are added to the culture medium. The concentration of BMP, e.g., BMP4, to be used in the method can range from at least about 1 ng/ml to about 50 ng/ml, e.g., about 2 ng/ml, 4 ng/ml, 5 ng/ml, 7 ng/ml, 12 ng/ml, 15 ng/ml, 20 ng/ml, 25 ng/ml, 32 ng/ml, 40 ng/ml, or another concentration of a BMP from at least about 1 ng/ml to about 50 ng/ml. In some embodiments, the BMP to be used is BMP4 at a concentration of about 10 ng/ml. BMP 4. In some embodiments, the TGFβ inhibitor to be used is SB 431542 (CAS No. 301836-41-9, at a final concentration of about 1 μM). Alternatively, any of the following TGFβ inhibitors may be used: A 83-01 (CAS No. 909910-43-6), GW 788388 (CAS No. 452342-67-5), LY 364947 (CAS No. 396129-53-6), RepSox (CAS No. 446859-33-2), SB 505124 (CAS No. 694433-59-5), SB 525334 (CAS No. 356559-20-1), or SD 208 (CAS No. […]) at a concentration of about 0.1 μM to about 5 μM.
as §1
RNA was isolated using the RNeasy Minikit (Qiagen) and treated with TURBO DNase (Ambion). Single-stranded cDNA was synthesized using Omniscript reverse transcriptase (Qiagen) and Oligo-dT primers. […] The mRNA level for each gene was calculated relative to L27 mRNA expression. […]

[4] = qPCR of day 5 samples, 10 ng/mL BMP vs vehicle control

Molecule: Cc1c[nH]c(-c2cnc(NCCNc3ccc(C#N)cn3)nc2-c2ccc(Cl)cc2Cl)n1 [CHIR99021]
- abundance of Pax2/Ecad+ vesicles with a luminal diameter greater than 50 μm (large vesicles) (ESC aggregates [1]; CHIR99021 3 μM days 8-10, read on day 12): higher abundance

Molecule: c1ccc2c(-c3cnn4cc(-c5ccc(N6CCNCC6)cc5)cnc34)ccnc2c1 [LDN, LDN-193189]
- Sox1 expression after LDN treatment (ESC aggregates [2]; BMP/SB aggregates): does not induce
- Dlx3 expression in BMP/SB aggregates after BMP inhibition (ESC aggregates [2]; LDN treatment on day 4.5): maintained expression of Dlx3
- Dlx3 expression after LDN treatment (ESC aggregates [2]; treatment on or before day 4): suppresses

Molecule: NC(=O)c1ccc(-c2nc(-c3ccc4c(c3)OCO4)c(-c3ccccn3)[nH]2)cc1 [SB, SB-431542]
- level of brachyury expression induced by BMP (ESC aggregates [3]; SB added to BMP, n=3): decreases

Molecule: Cc1c[nH]c(/C=C2\C(=O)Nc3ccccc32)c1CCC(=O)O [SU5402]
- epithelial thickening (ESC aggregates [2]; SU5402 (10 μM) following BMP/SB-LDN treatment): abolishes epithelial thickening

Molecule: Oc1nc(-c2ccc(C(F)(F)F)cc2)nc2c1CSCC2 [XAV939]
- number of prosensory vesicles (ESC aggregates [1]; XAV939 (1 μM) from day 8-10, vesicles counted on day 12): significantly decreased; also recorded: decreases
- prevalence of Pax2+ vesicles (ESC aggregates [1]; XAV939 from day 8-10): reduced
- generation of otic vesicles following BMP/SB-FGF/LDN treatment (ESC aggregates [1]; XAV939 on days 8-10): blocked

Molecule: FGF: recombinant human FGF2 (25 ng/mL; Peprotech)
- Pax8 expression versus FGF dosage (ESC aggregates [1]; qPCR, n=4, 25, 50 and 100 ng/mL not significantly different): dependent on FGF dosage

B1: BMP4: recombinant human BMP4 (bone morphogenetic protein), 10 ng/mL; Stemgent (protein, UniProt P12644 293-408, looked up)
Bone morphogenetic protein 4: SPKHHSQRARKKNKNCRRHSLYVDFSDVGWNDWIVAPPGYQAFYCHGDCPFPLADHLNSTNHAIVQTLVNSVNSSIPKACCVPTELSAISMLYLDEYDKVVLKNYQEMVVEGCGCR
- brachyury+ cells in aggregates (ESC aggregates [3]; day 5, BMP-treated aggregates): 60.8±3.9%
- neuroectoderm marker Sox1 expression (ESC aggregates [3]; [4]): downregulated
- non-neural ectoderm marker Dlx3 expression (ESC aggregates [3]; [4]): upregulated
